According to patent US10758609B2, “Cross-reactive T-cell epitopes of HIV, SIV, and FIV for vaccines in humans and cats” (priority 2015, dated 2020):

Legend:
[1] = system: CD3^+CD8^+ T cells from HIV^+ subjects; test: CFSE-based CD3+CD8+ T-cell proliferation, HIV+ human subjects; settings: for CD8, frequency of responders: FIV epitope peptide; for CD8^+ T (T-cell proliferation), frequency of responders: FIV peptides
Protocol: The overlapping peptide pools of FIV and HIV-1 structural and enzyme proteins were used to stimulate the […] (PBMC) and the T cells from HIV^+ subjects as previously described for epitope mapping of HIV-1 and FIV p24 and reverse transcriptase (RT) (Sanou et al., 2013; Roff et al., 2015). The individual peptides in those peptide pools with positive responses to either interferon-γ (IFNγ) production and/or T-cell proliferation were determined with IFNγ ELISpot analysis and CFSE-based CD3^+CD4^+ and CD3^+CD8^+ T-cell proliferation analyses followed by the FACS-based intracellular staining (ICS) for cytolysin (perforin) and cytotoxin (granzyme A [GrzA] and GrzB) (Sanou et al., 2013; Roff et al., 2015). Besides viral p24 and RT proteins, the identical approach was used to identify anti-HIV/FIV T-cell epitopes on viral matrix (MA), nucleocapsid (NC), protease (PR), RNAase, integrase (IN), surface envelope (SU Env), and transmembrane envelope (TM Env) (FIG. 12).
Since our goal is to develop HIV vaccine for human use, the HIV peptides (Table 10) counterpart of the cross-reactive FIV peptides shown in Table 9 were tested with PBMC and T cells from HIV^+ subjects. The immune functions analyzed were human IFNγ production by ELISpot, cytolysin/cytotoxin production by ICS, and CFSE-based proliferation of CD3^+CD4^+ and CD3^+CD8^+ T cells from HIV^+ subjects (Table 10, the first set of results). In addition, the Los Alamos National Laboratories (LANL) database was used to identify the HLA allele(s) of the HIV epitope sequence with CTL activity that can exist within the sequence of the conserved counterpart HIV peptide (Table 9, LANL CTL). The bold HLA class-I supertypes and the bold 2-digit alleles are those on the “Optimal CD8^+ CTL Epitopes” list and those without bold are alleles for potential CTL epitope. […] The HLA class II such as HLA-DRB1 has yet to be fully classified into supertypes, and therefore the 4-digit resolution nomenclatures for the HLA-DRB1 alleles are shown.
The threshold for positive IFNγ and IL2 ELISpot responses is ≥50 spot-forming units (SFU) per 10^6 PBMC. The threshold for CFSE-based CD4^+ and CD8^+ T-cell proliferation is ≥2% CD4^+ T-cell CFSE^low or CD8^+ T-cell CFSE^low. The threshold of FACS-based intracellular cytokine staining (ICS) is ≥0.2%. […] The nine FIV peptides in black were used in the current MAP vaccine trial, whereas the 13 peptides in blue were not used. […] The MAPs and their corresponding peptide(s) were also tested for their ability to enhance or suppress in vitro FIV infection of feline PBMC (E/S of peptides and E/S of MAP).
The counterpart HIV-1 peptides of the FIV peptides were also tested for immunogenicity using PBMC and T cells from HIV^+ human subjects. […] The HRT7-1 and HRT7-2 were also tested with cells from HIV^+ subjects on ART. The threshold for positive IFNγ ELISpot response is ≥75 spot-forming units (SFU) per 10^6 PBMC. The threshold for CFSE-based CD4^+ (CD4^+ T) and CD8^+ (CD8^+ T) T-cell proliferation is ≥2% CD4^+ T-cell CFSE^low or CD8^+ T-cell CFSE^low. The threshold of intracellular cytokine staining (ICS) of FACS-based cytolysin (perforin) and cytotoxins (granzymes A and B) in CD4^+ T cells (CyCD4) and CD8^+ T cells (CyCD8) is ≥0.2%. […] The nine HIV-1 peptides in black are the counterpart FIV peptides used in the current MAP vaccine trial, whereas the 13 peptides in blue were not.

[2] = system: feline CD3^+CD8^+ T cells; test: CFSE-based feline CD3+CD8+ T-cell proliferation; parameters: species or system cat; settings: FIV-vaccinated cats; for CD8, frequency of responders: FIV epitope peptide; for CD8^+ T (T-cell proliferation), frequency of responders: FIV peptides
Protocol: Carboxyfluorescein diacetate succinimide ester (CFSE)-proliferation was performed according to the manufacturer's protocol (Invitrogen, Grand Island, N.Y.) and processed using a previously described modification. The modification consisted of 2.5×10^5 CFSE-labeled feline PBMC stimulated for 5 days (37° C., 5% CO2) with 4 μg/mL peptide in culture media (RPMI medium 25 µg/mL gentamycin, and 10% heat-inactivated fetal bovine serum (FBS)). Peptide pools consisted of 3-5 overlapping peptides of 4 μg/mL each. The antibodies used for flow cytometry based proliferation analysis consisted of murine anti-feline (Fe) CD3 monoclonal antibody (MAb clone kindly provided by Drs. Yorihiro Nishimura and Takayuki Miyazawa; described in [32]) combined with secondary goat anti-mouse IgG3-APC/CY7 MAb (SouthernBiotech, Birmingham, Ala.; Cat#1100-19); and murine anti-FeCD4-PE MAb (SouthernBiotech, Cat#8130-09); and murine anti-FeCD8 MAb (MAb clone kindly provided by Dr. Nazareth Gengozian, described in [33]) with secondary goat anti-mouse IgG2a-PE/CY7 (Southern Biotech, Cat#1080-17). The murine anti-B220-APC MAb for detecting feline B cells (SouthernBiotech, Cat#1665-11) and previously described MAbs for CFSE were used for FACS phenotyping. Both FACS phenotyping and CFSE-proliferation analyses were performed with BD LSRII and FACSDiva™ Software (BD Biosciences, San Jose, Calif.). The final value for each sample was derived after subtraction of the average value of the media controls using a positive threshold of ≥1 CFSE^low.
Concurrently, the overlapping peptide pools of FIV structural/enzyme proteins were used to stimulate PBMC and T cells from FIV-vaccinated cats. These cats were vaccinated with prototype dual-subtype FIV vaccine which was the prototype to our commercial FIV vaccine (Coleman et al., 2014). The feline assays (Example 1) equivalent to those of human assays (Sanou et al., 2013; Roff et al., 2015) were used except for ICS analysis. In place of ICS for cytolysin/cytotoxins, IL2 ELISpot analysis was performed. […] The results for FIV-vaccinated cats included IFNγ and IL2 productions and CD3^+CD4+ and CD3^+CD8^+ T-cell proliferation (Table 9, the second set of results).
Carboxyfluorescein diacetate succinimide ester (CFSE)-proliferation analysis was according to the manufacturer's protocol (Invitrogen-Fisher, Carlsbad, Calif.) and processed as previously described (Roff et al. (2015)) using the following modifications: anti-feline CD3 antibody ((clone NZM1), a generous gift from T. Miyazawa (Univ. of Tokyo, Japan)) in combination with APC-conjugated anti-mouse IgG3 (Southern Biotech, Birmingham, Ala.), PE-conjugated anti-feline CD4 antibody (Southern Biotech), and anti-feline CD8 antibody (gift from N. Gengozian, University of Tennessee (Gengozian et al. (1997))) in combination with PE/Cy7-conjugated anti-mouse IgG2b (Southern Biotech) to detect the proliferation of feline CD3^+CD4+ T cells and feline […]. All results shown in the figures (FIGS. 7A-1, 7B-1, 7A-2, 7B-2, 7A-3, 7B-3) are after subtracting the average value of each results from all control cats. The threshold of CFSE proliferation is ≥0.5 CFSE^low. […]

Sequence | CD8, frequency of responders [1] | CD8^+ T (T-cell proliferation), frequency of responders [1] | CD8, frequency of responders [2] | CD8^+ T (T-cell proliferation), frequency of responders [2]
AGLRQSLEQYQVVKQ [FSU4] | — (0%-1.4% (—)) | — (0%-1.4%(—)) | +++ (41%-54% (+++)) | +++ (40.1%-54% (+++))
KFLYTAFAMQELR [FTM4-3] | — (0%-1.4% (—)) | — (0%-1.4%(—)) | ++ (26%-40% (++)) | ++ (25.1%-40% (++))
KKKSGKWRMLIDFRV [FRT3-3] | ++++ (>54% (++++)) | ++++ (>54% (++++)) | +++ (41%-54% (+++)) | +++ (40.1%-54% (+++))
LLLILCLPTLVDCIRN [FTM8(20)] | ++++ (>54% (++++)) | ++++ (>54% (++++)) | ++++ (>54% (++++)) | ++++ (>54% (++++))
PTDMATLIMAAPGCA [Fp4-3] | — (0%-1.4% (—)) | — (0%-1.4%(—)) | + (12.5%-25% (+)) | + (12.5%-25% (+))
WRMLIDFRVLNKL [FRT3-4] | ++ (26%-40% (++)) | ++ (25.1%-40% (++)) | +++ (41%-54% (+++)) | +++ (40.1%-54% (+++))
